From ChEMBL document CHEMBL1201862, “PubChem BioAssay data set” (2004)
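Exposure lasted 48 hours, with cells grown in 96-well plates and compounds tested at five concentrations. GI50 is the concentration that inhibits growth by half.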 Calls of active or inactive are those of the source. No stated cut-off is given here; in the data, active = GI50 up to about 1.1 µM and inactive = higher.

Columns and labels:
Test in all cases: DTP human tumour cell line panel, 48 h
Hs-578T = test system: Hs-578T
IGROV-1 = test system: IGROV-1
UACC-62 = test system: UACC-62
A498 = test system: A498
A549 = test system: A549
HL-60 = test system: HL-60
RPMI-8226 = test system: RPMI-8226
KM12 = test system: KM12
786-0 = test system: 786-0
MCF7 = test system: MCF7
COLO 205 = test system: COLO 205
NCI-H522 = test system: NCI-H522
MOLT-4 = test system: MOLT-4
SK-MEL-28 = test system: SK-MEL-28
NCI/ADR-RES = test system: NCI/ADR-RES
T47D = test system: T47D
EKVX = test system: EKVX
M14 = test system: M14
SW-620 = test system: SW-620
K562 = test system: K562
NCI-H23 = test system: NCI-H23
SN12C = test system: SN12C
SK-OV-3 = test system: SK-OV-3
OVCAR-8 = test system: OVCAR-8
DU-145 = test system: DU-145
OVCAR-3 = test system: OVCAR-3
OVCAR-5 = test system: OVCAR-5
SNB-19 = test system: SNB-19
HCC 2998 = test system: HCC 2998
MDA-MB-435 = test system: MDA-MB-435
MDA-MB-231 = test system: MDA-MB-231
SNB-75 = test system: SNB-75
BT-549 = test system: BT-549
SK-MEL-5 = test system: SK-MEL-5
CCRF-CEM = test system: CCRF-CEM
LOX IMVI = test system: LOX IMVI
ACHN = test system: ACHN
HOP-62 = test system: HOP-62
NCI-H460 = test system: NCI-H460
SF-295 = test system: SF-295
SK-MEL-2 = test system: SK-MEL-2
PC-3 = test system: PC-3
RXF 393 = test system: RXF 393
OVCAR-4 = test system: OVCAR-4
TK-10 = test system: TK-10
U-251 = test system: U-251
UO-31 = test system: UO-31
Malme-3M = test system: Malme-3M
NCI-H226 = test system: NCI-H226
HCT-15 = test system: HCT-15
SF-268 = test system: SF-268
SF-539 = test system: SF-539
HT-29 = test system: HT-29

## c1ccc2c(c1)ncn2CCn1ccnc1
Hs-578T
  GI50: > 100 µM (inactive)
IGROV-1
  GI50: > 100 µM (inactive)
UACC-62
  GI50: > 100 µM (inactive)
A498
  GI50: > 100 µM (inactive)
A549
  GI50: > 100 µM (inactive)
HL-60
  GI50: > 100 µM (inactive)
RPMI-8226
  GI50: > 100 µM (inactive)
KM12
  GI50: > 100 µM (inactive)
786-0
  GI50: > 100 µM (inactive)
MCF7
  GI50: > 100 µM (inactive)
COLO 205
  GI50: > 100 µM (inactive)
NCI-H522
  GI50: > 100 µM (inactive)
MOLT-4
  GI50: > 100 µM (inactive)
SK-MEL-28
  GI50: > 100 µM (inactive)
NCI/ADR-RES
  GI50: > 100 µM (inactive)
T47D
  GI50: > 100 µM (inactive)
EKVX
  GI50: > 100 µM (inactive)
M14
  GI50: > 100 µM (inactive)
SW-620
  GI50: > 100 µM (inactive)
K562
  GI50: > 100 µM (inactive)
NCI-H23
  GI50: > 100 µM (inactive)
SN12C
  GI50: > 100 µM (inactive)
SK-OV-3
  GI50: > 100 µM (inactive)
OVCAR-8
  GI50: > 100 µM (inactive)
DU-145
  GI50: > 100 µM (inactive)
OVCAR-3
  GI50: > 100 µM (inactive)
OVCAR-5
  GI50: > 100 µM (inactive)
SNB-19
  GI50: > 100 µM (inactive)
HCC 2998
  GI50: > 100 µM (inactive)
MDA-MB-435
  GI50: > 100 µM (inactive)
MDA-MB-231
  GI50: > 100 µM (inactive)
SNB-75
  GI50: > 100 µM (inactive)
BT-549
  GI50: > 100 µM (inactive)
SK-MEL-5
  GI50: > 100 µM (inactive)
CCRF-CEM
  GI50: > 100 µM (inactive)
LOX IMVI
  GI50: > 100 µM (inactive)
ACHN
  GI50: > 100 µM (inactive)
HOP-62
  GI50: > 100 µM (inactive)
NCI-H460
  GI50: > 100 µM (inactive)
SF-295
  GI50: > 100 µM (inactive)
SK-MEL-2
  GI50: > 100 µM (inactive)
PC-3
  GI50: > 100 µM (inactive)
RXF 393
  GI50: > 100 µM (inactive)
OVCAR-4
  GI50: 15.8 µM (inactive)
TK-10
  GI50: > 100 µM (inactive)
U-251
  GI50: > 100 µM (inactive)
UO-31
  GI50: > 100 µM (inactive)
Malme-3M
  GI50: > 100 µM (inactive)
NCI-H226
  GI50: > 100 µM (inactive)
HCT-15
  GI50: > 100 µM
SF-268
  GI50: > 100 µM (inactive)
SF-539
  GI50: > 100 µM (inactive)
HT-29
  GI50: > 100 µM (inactive)
